The source of these data is patent US11230540B2, “Substituted triazole derivatives and uses thereof” (Bayer Pharma Aktiengesellschaft, priority 2017, dated 2022).

Structures can show the parent of a compound that is named as a salt.

The target in one assay is T1, human V2 receptor (Homo sapiens, UniProt P30518).
T1 construct: expressed in transfected cells; host or cells: CHO K1 (Chinese hamster ovary) expressing firefly luciferase under a CRE-responsive promoter
In words: Cellular in vitro assay for vasopressin receptor activity, V2 receptor cell line (CRE-luciferase). The format is cell-based. As to conditions: CHO cell line transfected with human V2 receptor; [Arg8]-vasopressin at EC50 concentration; read-out: IC50 hV2. How it is done:
(§1) B-1. Cellular In Vitro Assay for Determining Vasopressin Receptor Activity
(§2) The identification of agonists and antagonists of the V1a and V2 vasopressin receptors from humans, rats and dogs as well as the quantification of the activity of the compounds of the invention is carried out using recombinant cell lines. These cell lines originally derive from a hamster's ovary epithelial cell (Chinese Hamster Ovary, CHO K1, ATCC: American Type Culture Collection, Manassas, Va. 20108, USA). The test cell lines constitutively express the human, rat or dog V1a or V2 receptors. In case of the […] V1a receptors, cells are also stably transfected with a modified form of the calcium-sensitive photoproteins aequorin (human and rat V1a) or obelin (dog V1a), which, after reconstitution with the cofactor coelenterazine, emit light when there are increases in free calcium concentrations [Rizzuto R, Simpson A W, Brini M, Pozzan T, Nature 358, 325-327 (1992); Illarionov B A, Bondar V S, Illarionova V A, Vysotski E S, Gene 153 (2), 273-274 (1995)]. The resulting vasopressin receptor cells react to stimulation of the recombinantly expressed V1a receptors by intracellular release of calcium ions, which can be quantified by the resulting photoprotein luminescence. The Gs-coupled V2 receptors are stably transfected into cell lines expressing the gene for firefly luciferase under control of a CRE-responsible promoter. Activation of V2 receptors induces the activation of the CRE-responsive promoter via cAMP increase, thereby inducing the expression of firefly luciferase. The light emitted by photoproteins of V1a cell lines as well as the light emitted by firefly luciferase of V2 cell lines corresponds to the activation or inhibition of the respective vasopressin receptor. The bioluminescence of the cell lines is detected using a suitable luminometer [Milligan G, Marshall F, Rees S, Trends in Pharmacological Sciences 17, 235-237 (1996)].
Vasopressin V2 Receptor Cell Lines:
On the day before the assay, the cells are plated out in culture medium (DMEM/F12, 2% FCS, 2 mM glutamine, 10 mM HEPES) in 384-well microtiter plates and kept in a cell incubator (96% humidity, 5% v/v CO2, 37° C.). On the day of the assay, test compounds in various concentrations and the agonist [Arg^8]-vasopressin at EC50 concentration are added together to the wells, and plates are incubated for 3 hours in a cell incubator. Upon addition of the cell lysis reagent Triton™ and the substrate luciferin, luminescence of firefly luciferase is measured in a luminometer.
(§3) Table 1A below lists individual IC50 values for the compounds of the invention (including racemic mixtures as well as separated enantiomers) that were obtained from cell lines transfected with the human V1a or V2 receptor: […]

A further assay has as its target T2, human V1a receptor (Homo sapiens, UniProt P37288).
T2 construct: expressed in transfected cells; host or cells: CHO K1 (Chinese hamster ovary), also stably transfected with a modified aequorin
In words: Cellular in vitro assay for vasopressin receptor activity, V1a receptor cell line (aequorin luminescence). The format is cell-based. The settings on record: for IC50: CHO cell line transfected with human V1a receptor, [Arg8]-vasopressin at EC50 concentration, read-out: IC50 hV1a; for ratio IC50 hV2/hV1a: selectivity ratio of the IC50 values hV2/hV1a. On the procedure: as §1, §2
Vasopressin V1a Receptor Cell Lines:
On the day before the assay, the cells are plated out in culture medium (DMEM/F12, 2% FCS, 2 mM glutamine, 10 mM HEPES, 5 μg/ml coelenterazine) in 384-well microtiter plates and kept in a cell incubator (96% humidity, 5% v/v CO2, 37° C.). On the day of the assay, test compounds in various concentrations are placed for 10 minutes in the wells of the microtiter plate before the agonist [Arg^8]-vasopressin at EC50 concentration is added. The resulting light signal is measured immediately in a luminometer.
as §3

T2 sequence (P37288 whole entry): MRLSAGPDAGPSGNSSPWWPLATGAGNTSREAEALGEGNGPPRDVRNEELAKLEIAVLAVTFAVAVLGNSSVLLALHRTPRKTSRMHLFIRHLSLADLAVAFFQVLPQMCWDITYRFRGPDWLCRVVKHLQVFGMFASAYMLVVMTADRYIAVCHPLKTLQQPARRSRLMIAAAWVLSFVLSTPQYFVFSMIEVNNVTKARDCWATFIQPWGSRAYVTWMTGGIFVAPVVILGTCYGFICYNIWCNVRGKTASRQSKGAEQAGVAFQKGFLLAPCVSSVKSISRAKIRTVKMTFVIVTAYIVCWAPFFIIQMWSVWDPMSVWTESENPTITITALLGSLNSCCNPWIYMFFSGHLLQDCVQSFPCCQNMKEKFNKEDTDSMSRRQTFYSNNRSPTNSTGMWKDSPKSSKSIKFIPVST
T1 sequence (P30518 whole entry): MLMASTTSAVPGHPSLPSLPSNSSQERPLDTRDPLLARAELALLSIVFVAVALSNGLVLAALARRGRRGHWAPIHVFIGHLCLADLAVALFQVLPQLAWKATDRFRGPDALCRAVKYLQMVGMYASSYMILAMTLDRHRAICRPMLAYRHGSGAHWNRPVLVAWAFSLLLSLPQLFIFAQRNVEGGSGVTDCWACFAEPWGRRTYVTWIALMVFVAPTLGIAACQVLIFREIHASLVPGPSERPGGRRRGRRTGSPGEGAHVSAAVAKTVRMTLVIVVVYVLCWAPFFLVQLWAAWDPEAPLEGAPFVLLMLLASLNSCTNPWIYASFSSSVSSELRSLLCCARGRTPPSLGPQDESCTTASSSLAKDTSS

Broadly, the IC50 is the concentration needed to halve the response being measured. As to `O=CN1CCC(NC(=O)c2nc(Cn3nc(-c4ccc(Cl)cc4)n(C[C@H](O)C(F)(F)F)c3=O)nn2-c2cnccc2Cl)C1` (mixture of isomers) [Example 13, 3-({3-(4-Chlorophenyl)-5-oxo-4-[(2S)-3,3,3-trifluoro-2-hydroxypropyl]-4,5-dihydro-1H-1,2,4-triazol-1-yl}methyl)-1-(4-chloropyridin-3-yl)-N-[1-formylpyrrolidin-3-yl]-1H-1,2,4-triazole-5-carboxamide], the IC50 at human V2 receptor is 285 nM. At human V1a receptor, the 50% inhibitory concentration (IC50) was determined as 1.5 nM and the “ratio IC50 hV2/hV1a” value stood at 190.0.
For `O=CN1CCC(NC(=O)c2nc(Cn3nc(-c4ccc(Cl)cc4)n(C[C@H](O)C(F)(F)F)c3=O)nn2-c2cccnc2Cl)C1` (mixture of isomers) [Example 14, 3-({3-(4-Chlorophenyl)-5-oxo-4-[(2S)-3,3,3-trifluoro-2-hydroxypropyl]-4,5-dihydro-1H-1,2,4-triazol-1-yl}methyl)-1-(2-chloropyridin-3-yl)-N-[1-formylpyrrolidin-3-yl]-1H-1,2,4-triazole-5-carboxamide], the IC50 came out at 315 nM at human V2 receptor and 108 nM on human V1a receptor. Further, the “ratio IC50 hV2/hV1a” value on human V1a receptor worked out at 2.9.
Taken in the same sequence, the figures for `CC1(O)CCN(C(=O)c2nc(Cn3nc(-c4ccc(Cl)cc4)n(C[C@H](O)C(F)(F)F)c3=O)nn2CCC(F)(F)F)C1` (mixture of isomers) [Example 22, 5-(4-Chlorophenyl)-2-{[5-{[3-hydroxy-3-methylpyrrolidin-1-yl]carbonyl}-1-(3,3,3-trifluoropropyl)-1H-1,2,4-triazol-3-yl]methyl}-4-[(2S)-3,3,3-trifluoro-2-hydroxypropyl]-2,4-dihydro-3H-1,2,4-triazol-3-one] were 435 nM, 290 nM and 1.5.
In the case of `O=C(c1nc(Cn2nc(-c3ccc(Cl)cc3)n(C[C@H](O)C(F)(F)F)c2=O)nn1CCC(F)(F)F)N1CCNC(C(F)(F)F)C1` (mixture of isomers) [Example 25, 5-(4-Chlorophenyl)-4-[(2S)-3,3,3-trifluoro-2-hydroxypropyl]-2-{[5-{[3-(trifluoromethyl)piperazin-1-yl]carbonyl}-1-(3,3,3-trifluoropropyl)-1H-1,2,4-triazol-3-yl]methyl}-2,4-dihydro-3H-1,2,4-triazol-3-one], the IC50 on human V2 receptor amounted to 170 nM; on human V1a receptor, 35 nM. Moreover, the “ratio IC50 hV2/hV1a” value at human V1a receptor was found to be 4.9.
As to `NC(CNC(=O)c1nc(Cn2nc(-c3ccc(Cl)cc3)n(C[C@H](O)C(F)(F)F)c2=O)nn1-c1ncccc1C(F)(F)F)C(F)(F)F` (mixture of isomers) [Example 51, N-(2-Amino-3,3,3-trifluoropropyl)-3-({3-(4-chlorophenyl)-5-oxo-4-[(2S)-3,3,3-trifluoro-2-hydroxypropyl]-4,5-dihydro-1H-1,2,4-triazol-1-yl}methyl)-1-[3-(trifluoromethyl)pyridin-2-yl]-1H1,2,4-triazole-5-carboxamide hydrochloride], the half-inhibitory concentration (IC50) on human V2 receptor was 1190 nM. At human V1a receptor, the IC50 came to 135 nM and the “ratio IC50 hV2/hV1a” value amounted to 8.8.
Taken in the same sequence, the figures for `CC1(O)CCN(C(=O)c2nc(Cn3nc(-c4ccc(Cl)cc4)n(C[C@H](O)C(F)(F)F)c3=O)nn2CCC(F)(F)F)C1` (single isomer, unassigned) [Example 23] were 245 nM, 285 nM and 0.9.
On the same counts, the results for `CC1(O)CCN(C(=O)c2nc(Cn3nc(-c4ccc(Cl)cc4)n(C[C@H](O)C(F)(F)F)c3=O)nn2CCC(F)(F)F)C1` (single isomer, unassigned) [Example 24] are 300 nM, 185 nM and 1.6.
Consider `CC(C)(O)CNC(=O)c1nc(Cn2nc(-c3ccc(Cl)cc3)n(C[C@H](O)C(F)(F)F)c2=O)nn1-c1ncccc1OC(F)(F)F` [Example 1, 3-({3-(4-Chlorophenyl)-5-oxo-4-[(2S)-3,3,3-trifluoro-2-hydroxypropyl]-4,5-dihydro-1H-1,2,4-triazol-1-yl}methyl)-N-(2-hydroxy-2-methylpropyl)-1-[3-(trifluoromethoxy)pyridin-2-yl]-1H1,2,4-triazole-5-carboxamide], for which the IC50 on human V2 receptor worked out at 82 nM. For the same compound, on human V1a receptor, the IC50 came out at 0.66 nM and the “ratio IC50 hV2/hV1a” value turned out to be 124.2.
Turning to `CC(C)(O)CNC(=O)c1nc(Cn2nc(-c3ccc(Cl)cc3)n(C[C@H](O)C(F)(F)F)c2=O)nn1-c1cnccc1Cl` [Example 2, 3-({3-(4-Chlorophenyl)-5-oxo-4-[(2S)-3,3,3-trifluoro-2-hydroxypropyl]-4,5-dihydro-1H-1,2,4-triazol-1-yl}methyl)-1-(4-chloropyridin-3-yl)-N-(2-hydroxy-2-methylpropyl)-1H-1,2,4-triazole-5-carboxamide], the half-maximal inhibitory concentration (IC50) at human V2 receptor is 23 nM. Further, at human V1a receptor, the IC50 is 0.45 nM and the “ratio IC50 hV2/hV1a” value was determined as 51.7.
On the same counts, the results for `CC(C)(N)CNC(=O)c1nc(Cn2nc(-c3ccc(Cl)cc3)n(C[C@H](O)C(F)(F)F)c2=O)nn1-c1ncccc1OC(F)(F)F` [Example 3, N-(2-Amino-2-methylpropyl)-3-({3-(4-chlorophenyl)-5-oxo-4-[(2S)-3,3,3-trifluoro-2-hydroxypropyl]-4,5-dihydro-1H-1,2,4-triazol-1-yl}methyl)-1-[3-(trifluoromethoxy)pyridin-2-yl]-1H-1,2,4-triazole-5-carboxamide] are 470 nM, 0.83 nM and 569.7.
Taken in the same sequence, the figures for `CC(C)(N)CNC(=O)c1nc(Cn2nc(-c3ccc(Cl)cc3)n(C[C@H](O)C(F)(F)F)c2=O)nn1-c1cnccc1Cl` [Example 4, N-(2-Amino-2-methylpropyl)-3-({3-(4-chlorophenyl)-5-oxo-4-[(2S)-3,3,3-trifluoro-2-hydroxypropyl]-4,5-dihydro-1H-1,2,4-triazol-1-yl}methyl)-1-(4-chloropyridin-3-yl)-1H-1,2,4-triazole-5-carboxamide] were 410 nM, 0.49 nM and 845.4.
`CC1(O)CCN(C(=O)c2nc(Cn3nc(-c4ccc(Cl)cc4)n(C[C@H](O)C(F)(F)F)c3=O)nn2-c2ncccc2OC(F)(F)F)C1` (stereo partly drawn) [Example 5, 5-(4-Chlorophenyl)-2-[(5-[{3-hydroxy-3-methylpyrrolidin-1-yl]carbonyl}-1-[3-(trifluoromethoxy)pyridin-2-yl]-1H-1,2,4-triazol-3-yl)methyl]-4[(2S)-3,3,3-trifluoro-2-hydroxypropyl]-2,4-dihydro-3H-1,2,4-triazol-3-one]: the half-maximal inhibitory concentration (IC50) at human V2 receptor is 1130 nM; at human V1a receptor, 10.3 nM. At human V1a receptor, the “ratio IC50 hV2/hV1a” value is 108.7.
Regarding `CC1(O)CCN(C(=O)c2nc(Cn3nc(-c4ccc(Cl)cc4)n(C[C@H](O)C(F)(F)F)c3=O)nn2-c2cnccc2Cl)C1` (stereo partly drawn) [Example 6], the IC50 at human V2 receptor stood at 360 nM. Also, on human V1a receptor, the half-inhibitory concentration (IC50) is 2.45 nM and the “ratio IC50 hV2/hV1a” value stood at 146.9.
On the same counts, the results for `CC1(CNC(=O)c2nc(Cn3nc(-c4ccc(Cl)cc4)n(C[C@H](O)C(F)(F)F)c3=O)nn2-c2ncccc2OC(F)(F)F)COC1` [Example 7, 3-({3-(4-Chlorophenyl)-5-oxo-4-[(2S)-3,3,3-trifluoro-2-hydroxypropyl]-4,5-dihydro-1H-1,2,4-triazol-1-yl}methyl)-N-[(3-methyloxetan-3-yl)methyl]-1-[3-(trifluoromethoxy)pyridin-2-yl]-1H1,2,4-triazole-5-carboxamide] are 335 nM, 2.55 nM and 131.4.
